This is an account of results in patent publication US20230348459A1, “PYRROLIDINE COMPOUND AND USE THEREOF” (SIMCERE PHARMACEUTICAL CO., LTD., priority 2020, published 2023).

The term DC50 denotes the concentration giving 50% degradation.

One data set relates to MCF7 cells. The experiment in a line: Inhibition of the proliferation of MCF7 cells (CellTiter-Glo). The data set is classed as cell-based. To be noted: Homo sapiens, MCF7, 168 h; 7 days treatment; read-out: MCF-7 cell proliferation inhibition IC50. The protocol:
The purpose of the experiment is to determine the inhibitory effect of the compounds of the present invention on the proliferation of MCF7 cells in vitro, and to evaluate the activity of the compounds according to IC50 and maximum inhibitory efficiency.
MCF7 cells (ATCC, HTB-22) were cultured in DMEM (Gibco, 11995-065) complete medium containing 10% fetal bovine serum. On the first day of the experiment, MCF7 cells were inoculated in a 384-well plate at a density of 500 cells/well using the complete medium, and cultured in a 37° C., 5% CO2 cell incubator overnight. The next day, the compounds to be tested were added for drug treatment, and the compound solution with a stock concentration of 10 mM was diluted with Echo550 (Labcyte Inc.) and transferred to each cell culture well. Each compound with the starting concentration for treatment of 100 nM in cells was subjected to 3-fold gradient dilution with 9 concentration points. A blank control containing 0.3% DMSO was set, and double replicate wells as controls were set at each concentration point. The culture was cultured in a 37° C., 5% CO2 cell incubator for 7 days, and the cell culture plate was taken out on day 8.
(Cellular ATP, detected with luciferase, serves as a proxy for viable cell number.)

For data set [1], the target named is estrogen receptors in MCF7 cells (Homo sapiens (Human), UniProt P03372). Put plainly: Degradation of estrogen receptors in MCF7 cells (in-cell western). To be noted: for DC50: 24 hours treatment, read-out: ER level DC50; for Dmax: 24 hours, 0.1 µM fulvestrant = 100% degradation control, read-out: Maximum degradation rate. The data set is classed as cell-based. The protocol:
The purpose of the experiment is to determine the degradation activity of the compounds of the present invention on endogenously expressed estrogen receptors in MCF7 cells, and to evaluate the activity of the compounds according to DC50 and maximum degradation efficiency.
MCF7 cells (ATCC, HTB-22) were cultured in DMEM (Gibco, 11995-065) complete medium containing 10% fetal bovine serum. On the first day of the experiment, MCF7 cells were inoculated in a 384-well plate at a density of 3000 cells/well using the complete medium, and cultured in a 37° C., 5% CO2 cell incubator. The compounds to be tested were dissolved in DMSO with a stock concentration of 10 mM, the solution was diluted with Echo 550 (Labcyte Inc.) and added to the cell culture plate. Each compound with the starting concentration for treatment of 100 nM was subjected to 3-fold gradient dilution with 9 concentration points. A blank control containing 0.5% DMSO was set, and double replicate wells as controls were set at each concentration point. The culture was cultured in a 37° C., 5% CO2 cell incubator for 24 hours. Paraformaldehyde was added to the cell culture medium in each cell culture well, and the final concentration of paraformaldehyde was about 3.7% to fix the cells. After the mixture was reacted for 30 minutes, the supernatant was discarded, and 50 µL of PBS was added to each well for washing once. The cells were treated with PBS containing 0.5% v/v Tween-20 for 30 minutes, and washed with PBS once. A blocking solution (PBS containing 5% BSA, 0.05% Tween-20) was added, and the mixture was incubated at room temperature for 1 hour. The blocking solution was removed, a mixture solution of primary antibodies (anti-ER mAb, Estrogen Receptor α (D8H8) Rabbit mAb, GST, # 8644S, 1 : 1000 dilution; anti-GAPDH mAb, GAPDH(D4C6R) Mouse mAb, GST, #97166S, 1 : 2000 dilution) was added, and the mixture was incubated at room temperature for 3 hours. The culture was washed with PBST (PBS containing 0.05% Tween-20) 3 times. Secondary antibodies for detection (800CW-goat anti-rabbit IgG, LI-COR, P/N: 926-32211, 1 : 1000 dilution; 680RD-goat anti-mouse IgG, LI-COR, #925-68070, 1 : 1000 dilution) were added, and the mixture was incubated at room temperature and in the dark for 45 minutes. After washing with PBST 3 times, the fluorescence signal of each well was read using Odyssey CLx, and the value of Chanel 800 (ER)/Chanel 680 (GAPDH) was calculated. The wells treated with 0.1 µM fulvestrant were used as the 100% degradation control, and the degradation rate at each concentration point was calculated. The data were analyzed and processed by XlLfit, and the degradation activity DC50 and the maximum degradation rate Imax of each compound were calculated.

In another data set the test system is MCF-7 intracranial tumor. The experiment in a line: Growth inhibition in MCF-7 intracranial tumor model in mice. As to conditions: 250 mg/kg SC once weekly. The protocol: Animal information: NPG mice (female, 6-8 weeks, body weight: about 17-29 g) were purchased from Beijing Vitalstar Biotechnology Co., Ltd. The mice were fed in SPF environment and each cage position was individually ventilated.
Cell culture: The human breast cancer MCF-7 cell line was cultured in vitro in EMEM (cell culture medium) supplemented with 10% fetal bovine serum, 1% Pen Strep and 10 µg/ml recombinant human insulin in a 37° C., 5% CO2 incubator. Conventional digestion treatment with 0.25% trypsin-EDTA digestion solution was carried out twice weekly for passage. When the cell saturation was 80%-90%, and the number reached the requirement, the cells were collected and counted.
Cell inoculation: 15 µl/(containing 2 × 10^6) MCF-7 cell suspension was inoculated into the brain of mice using a stereotaxic apparatus, a micro-injection pump and a miniature handheld cranial drill, and the mice were subcutaneously inoculated with 17β-estradiol tablets three days before the cell inoculation. On day 8 after cell inoculation, the mice were randomized into groups for administration according to the body weight thereof, and the day of grouping was Day 0.
11 mice were in the vehicle group and 8 mice were in the administration group. Mice in all groups were continuously administered until the mice died, which were euthanized due to poor state or the end of the experiment.
The body weight of the mice was measured twice weekly, and the survival status of the mice was observed.
At the end of the experiment on Day 48, all mice were euthanized.

pIC50: −log10 of the molar value.

Chain of estrogen receptors in MCF7 cells (P03372 whole entry): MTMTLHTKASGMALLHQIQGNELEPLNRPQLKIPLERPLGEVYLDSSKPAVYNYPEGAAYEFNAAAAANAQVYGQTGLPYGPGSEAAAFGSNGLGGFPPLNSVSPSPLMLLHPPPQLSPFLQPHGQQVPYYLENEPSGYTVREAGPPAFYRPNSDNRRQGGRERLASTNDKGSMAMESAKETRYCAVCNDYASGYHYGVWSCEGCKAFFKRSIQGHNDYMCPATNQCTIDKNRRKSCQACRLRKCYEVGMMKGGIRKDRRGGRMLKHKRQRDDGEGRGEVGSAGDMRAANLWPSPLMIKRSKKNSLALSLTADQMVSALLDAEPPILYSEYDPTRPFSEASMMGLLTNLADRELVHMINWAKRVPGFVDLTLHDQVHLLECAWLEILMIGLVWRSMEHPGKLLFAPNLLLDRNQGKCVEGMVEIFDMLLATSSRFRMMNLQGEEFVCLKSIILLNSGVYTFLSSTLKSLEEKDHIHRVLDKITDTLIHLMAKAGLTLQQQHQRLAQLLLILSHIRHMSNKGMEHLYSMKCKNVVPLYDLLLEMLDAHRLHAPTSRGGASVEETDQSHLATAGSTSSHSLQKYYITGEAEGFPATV

With `C[C@@H]1Cc2c([nH]c3ccccc23)[C@@H](c2c(F)cc(N[C@@H]3CN(CCCF)C[C@H]3F)cc2F)N1CC(F)(F)F` (stereo in doubt) [Example 5, trans-N-(3,5-difluoro-4-((1S,3R)-3-methyl-2-(2,2,2-trifluoroethyl)-2,3,4,9-tetrahydro-1H-pyridino[3,4-b]indol-1-yl)phenyl)-4-fluoro-1-(3-fluoropropyl)pyrrolidin-3-amine], the pIC50 with MCF7 cells was 8.59. Further, in data set [1], the DC50 stood at 0.58 nM and the Dmax was found to be 80%.

On to `C[C@@H]1CN(CCCF)C[C@H]1Nc1cc(F)c([C@@H]2c3[nH]c4ccccc4c3C[C@@H](C)N2CC(F)(F)F)c(F)c1` (stereo in doubt) [Example 6, trans-N-[3,5-difluoro-4-[(1S,3R)-3-methyl-2-(2,2,2-trifluoroethyl)-1,3,4,9-tetrahydropyridino[3,4-b]indol-1-yl]phenyl]-1-(3-fluoropropyl)-4-methyl-pyrrolidin-3-amine], for which, in the data set on MCF7 cells, the pIC50 was 8.62. Also, in data set [1], the half-maximal degradation concentration (DC50) stood at 0.5 nM and the Dmax was 90%.

For the compound `C[C@@H]1Cc2c([nH]c3ccccc23)[C@@H](c2ccc(NC3CCN(CCCF)C3)cn2)N1CC(F)(F)F` (stereo partly drawn) [Example 1, N-(1-(3-fluoropropyl)pyrrolidin-3-yl)-6-((1S,3R)-3-methyl-2-(2,2,2-trifluoroethyl)-2,3,4,9-tetrahydro-1H-pyridino[3,4-b]indol-1-yl)pyridine-3-amine], the pIC50 with MCF7 cells was 9.24. Further, in data set [1], the DC50 is 0.41 nM and the Dmax was 106%.

Consider `C[C@@H]1Cc2c([nH]c3ccccc23)[C@@H](c2ccc(N[C@@H]3CCN(CCCF)C3)cn2)N1CC(F)(F)F` [Example 2], for which, in the data set on MCF7 cells, the pIC50 is 7.82. Besides, in data set [1], the DC50 amounted to 8.5 nM and the Dmax is 92%.

As for `C[C@]12CC[C@@H]3c4ccc(O)cc4C[C@@H](CCCCCCCCC[S+]([O-])CCCC(F)(F)C(F)(F)F)[C@H]3[C@@H]1CC[C@@H]2O` (some centres unmarked) [Fulvestrant, reference compound], in the data set with MCF-7 intracranial tumor, the “Body weight of mice” value was “continued to lose weight” and the Median survival period amounted to 29.5 days.
